In US20120315624A1, “Using LNA Flow-Fish to Quantitatively Monitor Viral Infections in Infected Cells and Test the Efficacy of Antiviral Medications” (priority 2011, published 2012):

Tests used:
[1] = tested on: Sindbis virus (SV); test: LNA flow-FISH of Sindbis virus RNA in infected cells with and without antiviral; format: cell-based
Protocol: Cells were infected with the virus of interest and harvested at various timepoints during infection. Cells were harvested and fixed with 4% paraformaldehye and 5% acetic acid in phosphate-buffered saline (PBS) for 10 min at room temperature. After fixation, the cells were washed twice in PBS and stored at 4° C. until use.
A control oligonucleotide and a specific biotinylated LNA-modified DNA oligonucleotide were used for the quantification of SV RNA. The sequences of the probes along with other relevant details are found in reference 30. The control probe is a nonspecific 22-mer oligonucleotide (nonspecific LNA) lacking complementarity to cellular nucleic acids and having a Tm of 75° C. The specific LNA probe (SV LNA), complementary to the SV RNA portion encoding the structural proteins, was also a 22-mer with a Tm of 76° C. Each had approximately one-third locked nucleic acid content.
When ready to detect the virus present in the cells at various timepoints, the cells were permeabilized with 0.1 μg/mL Proteinase K in TE buffer (pH 8.0) for 30 min at 37° C. The cells were then washed twice with PBS. A pre-hybridization step was then carried out under the same conditions as the hybridization, but without LNA probe. After pre-hybridization, a solution of 0.1× saline-sodium citrate (SSC) buffer was added followed by centrifugation and removal of the supernatant. […]
To use the LNA flow-FISH method to study the efficacy of antiviral medication, before, during, or after infection, cells were treated with an antiviral compound and left for various amounts of time. […] The change in viral nucleic acid with antiviral treatment can be quantified by taking the mean fluorescence intensity (MFI) or by examining the percent of infected cells compared to uninfected cells.
(§1) As an example, Sindbis virus (SV) was used along with Ribavirin (Rbv), an antiviral, to test the LNA flow-FISH method for studying the action and efficacy of antiviral medications. […] Samples infected with SV with and without Rbv were analyzed by LNA flow-FISH.

[2] = tested on: Sindbis virus (SV); test: EGFP signal of the recombinant Sindbis virus measured by flow cytometry; format: cell-based; settings: SV-infected cells, 6-h incubation with Rbv, FIG. 4
Protocol: Sindbis virus (SV) was used to test the LNA flow-FISH method for the quantitative monitoring of a viral infection in cells. After infecting cells with SV, cells were collected at different timepoints and their mean fluorescence intensity (MFI) was measured using flow cytometry. The LNA flow-FISH technique was directly compared with a genetic recombination method of measuring viral infection—this was possible because the SV strain has an enhanced green fluorescent protein (eGFP) construct incorporated into the viral RNA. […] In addition, lysed cells were used to compare the LNA flow-FISH results with QRT-PCR.
To use the LNA flow-FISH method to study the efficacy of antiviral medication, before, during, or after infection, cells were treated with an antiviral compound and left for various amounts of time. The LNA flow-FISH method is then used as described above. The change in viral nucleic acid with antiviral treatment can be quantified by taking the mean fluorescence intensity (MFI) or by examining the percent of infected cells compared to uninfected cells.
as §1

[3] = tested on: many DNA and RNA viruses including Sindbis; settings: general statement on the nucleoside analog; cited from earlier work

SMILES: NC(=O)c1ncn([C@@H]2O[C@H](CO)[C@@H](O)[C@H]2O)n1 [Rbv, Ribavirin]
- viral replication (SV RNA by LNA flow-FISH) ([1]; 6-h incubation with Rbv, FIG. 4): reduction in viral replication
- mean fluorescence intensity (MFI) of samples with Rbv versus samples without antiviral ([1]; 6 h, SV LNA flow-FISH and EGFP, FIG. 4): drastically lower
- uninfected cells in the population when Rbv present ([1]; 6 h with Rbv): no uninfected cells were observed
- viral expression (EGFP) [2]: reduction
- replication of viruses [3]: inhibits the replication of many DNA and RNA viruses including Sindbis
